Data on 14 molecules can be found in PubChem BioAssay (NCI).

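Following 48 hours of exposure in 96-well plates, responses at five concentrations were used to interpolate endpoints linearly. Definition used: TGI = concentration required for complete inhibition of growth.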

Among the test systems are A498 renal; COLO 205 colon; EKVX NSCLC; HOP-92 NSCLC; HS 578T breast; HT29 colon; PC-3 prostate; SF-539 CNS; SW-620 colon; UO-31 renal.
What all share (assay): growth of human tumour cells (NCI), 48 h

For `CC1(O)C(=O)OC2CC([C@]3(O)CCC4[C@@H]5C[C@H]6O[C@]67[C@@H](O)C=CC(=O)[C@]7(C)C5CC[C@@]43C)C1(C)C2` (stereo partly drawn), the TGI is > 100 µM in the test with A498 renal; 20.7 µM with COLO 205 colon; > 100 µM with EKVX NSCLC; 10.9 µM with HOP-92 NSCLC; > 96.7 µM in the test on HS 578T breast; 36.5 µM in the test with HT29 colon. In addition, the TGI in the test on PC-3 prostate was 50.5 µM; in the test with SF-539 CNS, 44.5 µM; in the test on SW-620 colon, 11.1 µM; with UO-31 renal it was > 85.3 µM.

With `CCCC(=O)OC1CC(n2cc(F)c(=O)[nH]c2=O)OC1CO` (stereo not drawn), the TGI in the test with A498 renal, in the test with COLO 205 colon, with EKVX NSCLC, in the test with HS 578T breast, in the test with HT29 colon and in the test with PC-3 prostate was > 10 µM in each case. Further, the results for the TGI in the test on SF-539 CNS, in the test with SW-620 colon and in the test with UO-31 renal were 0.385 µM, > 10 µM and > 10 µM, respectively.

`O=c1oc2ccccc2c(O)c1Cc1cccc(Cc2c(O)c3ccccc3oc2=O)c1`: the TGI in the test with A498 renal, with COLO 205 colon, with EKVX NSCLC, in the test with HOP-92 NSCLC, in the test on HS 578T breast and in the test on HT29 colon was > 100 µM each time. The TGI with PC-3 prostate, in the test with SF-539 CNS, with SW-620 colon and in the test with UO-31 renal was > 100 µM throughout.

As to `N#Cc1c(-c2ccc(Cl)cc2)cc(-c2nc3ccccc3[nH]2)nc1N`, the TGI with A498 renal was 22.6 µM; in the test on COLO 205 colon, 20.1 µM; with EKVX NSCLC, 46.1 µM; with HOP-92 NSCLC it was 26.3 µM; in the test with HS 578T breast it was 73.3 µM; in the test with HT29 colon, 25.5 µM. The TGI in the test on PC-3 prostate is 32.6 µM; in the test on SF-539 CNS, 31.7 µM; in the test on SW-620 colon, 42.6 µM; with UO-31 renal, 21.9 µM.

Turning to `CN(C)C=Nc1nncc2n[nH]nc12`, the TGI in the test on A498 renal, in the test on COLO 205 colon, in the test on EKVX NSCLC, with HS 578T breast, in the test with HT29 colon and in the test on PC-3 prostate was > 100 µM in each case. Also, the TGI with SF-539 CNS, in the test with SW-620 colon and in the test on UO-31 renal was > 100 µM each time.

In the case of `CCOC(=O)c1c(-c2ccc(OC)c(O)c2)c(C#N)c(=S)n(C2OC(CO)C(O)C(O)C2O)c1-c1ccccc1` (stereo not drawn), the TGI in the test on A498 renal, with COLO 205 colon, in the test with EKVX NSCLC, in the test on HS 578T breast, in the test with HT29 colon and with PC-3 prostate was > 100 µM throughout. Besides, the TGI in the test on SW-620 colon and with UO-31 renal was > 100 µM throughout.

Consider `COc1ccc(NC(=S)NNC(=O)c2cc(-c3ccccc3)nc3ccccc23)cc1`, for which the TGI in the test with A498 renal is 35.1 µM; with COLO 205 colon it was 97.4 µM; in the test with HOP-92 NSCLC it was 31.9 µM; in the test on HS 578T breast it was 75.5 µM; with HT29 colon it was 39.3 µM; in the test on PC-3 prostate, 55.1 µM. In addition, the values for the TGI in the test with SF-539 CNS, in the test on SW-620 colon and in the test with UO-31 renal were 27.2 µM, 41.6 µM and 26.3 µM, respectively.

In the case of `O=C(O)CCCc1ccc2c(c1)CC1(C2)Cc2ccc(CCCC(=O)O)cc2C1`, the TGI in the test with A498 renal, in the test with COLO 205 colon, in the test on EKVX NSCLC, in the test on HOP-92 NSCLC, in the test on HS 578T breast and in the test with HT29 colon was > 100 µM throughout. The TGI in the test on PC-3 prostate, in the test with SF-539 CNS and in the test on UO-31 renal was > 100 µM each time.

`Cc1cc(C)c2c(c1)CC1(Cc3c(C)cc(C)cc3C1=O)C2=O` (stereo not drawn): the TGI in the test on A498 renal, in the test on COLO 205 colon, in the test with EKVX NSCLC, in the test on HOP-92 NSCLC, with HS 578T breast and in the test on PC-3 prostate was > 100 µM throughout. In addition, the TGI in the test on SF-539 CNS, in the test on SW-620 colon and with UO-31 renal was > 100 µM throughout.

Turning to `COC(=O)C1=C(C)NC2(C)OC(C)(O)C(C(C)=O)C12C(C)=O` (stereo not drawn), the TGI with A498 renal was > 100 µM; in the test with COLO 205 colon, > 100 µM; in the test with EKVX NSCLC, > 100 µM; in the test with HOP-92 NSCLC, 89.2 µM; in the test with HS 578T breast it was 65.1 µM; with HT29 colon it was > 100 µM. The TGI in the test with PC-3 prostate is > 100 µM; in the test with SF-539 CNS it was 57.5 µM; with SW-620 colon it was > 100 µM.

On to `COC(=O)/C=C\C(C#N)(C#N)N=Cc1ccsc1`, for which the TGI is 35.3 µM with A498 renal; 2.73 µM in the test with COLO 205 colon; 12.5 µM in the test on EKVX NSCLC; 3.7 µM in the test on HOP-92 NSCLC; > 68 µM in the test with HS 578T breast; 8.97 µM in the test on HT29 colon. For the same molecule, the TGI came out at 25.4 µM with PC-3 prostate, 3.34 µM with SW-620 colon and 8.85 µM in the test with UO-31 renal.

Turning to `O=c1/c(=C/c2ccc(-c3ccc(Cl)cc3Cl)o2)sc2n1[C@@H](c1ccc3c(c1)OCO3)C=C(c1cc(F)c(Cl)cc1Cl)N=2`, the TGI in the test on A498 renal was 6 µM; with COLO 205 colon, > 100 µM; in the test with HOP-92 NSCLC it was 95.5 µM; in the test on HS 578T breast it was > 100 µM; in the test with HT29 colon it was 74.7 µM; in the test on PC-3 prostate it was > 100 µM. For the same molecule, the TGI is > 100 µM in the test on SF-539 CNS, > 100 µM with SW-620 colon and 95.1 µM with UO-31 renal.

For the molecule `O=c1c(-c2ccc(O)cc2)coc2cc(O)cc(O)c12`, the TGI with COLO 205 colon, in the test on EKVX NSCLC, with HOP-92 NSCLC, in the test with HS 578T breast, with HT29 colon and with PC-3 prostate was > 100 µM in each case. Also, the TGI in the test on SF-539 CNS, in the test on SW-620 colon and in the test with UO-31 renal was > 100 µM throughout.

In the case of `S=C(Nc1ccc2c(c1)Cc1ccccc1-2)Nc1ccc2c(c1)Cc1ccccc1-2`, the TGI in the test on A498 renal, with COLO 205 colon, in the test on EKVX NSCLC, in the test on HOP-92 NSCLC, with HS 578T breast and in the test on HT29 colon was > 100 µM throughout. For the same molecule, the TGI in the test with PC-3 prostate, in the test on SW-620 colon and with UO-31 renal was > 100 µM each time.
